These results are taken from US9783527B2, “Indazole ureas and method of use” (AbbVie Inc., priority 2014, dated 2017).

Sequence of human Nav1.7 (Q15858 whole entry): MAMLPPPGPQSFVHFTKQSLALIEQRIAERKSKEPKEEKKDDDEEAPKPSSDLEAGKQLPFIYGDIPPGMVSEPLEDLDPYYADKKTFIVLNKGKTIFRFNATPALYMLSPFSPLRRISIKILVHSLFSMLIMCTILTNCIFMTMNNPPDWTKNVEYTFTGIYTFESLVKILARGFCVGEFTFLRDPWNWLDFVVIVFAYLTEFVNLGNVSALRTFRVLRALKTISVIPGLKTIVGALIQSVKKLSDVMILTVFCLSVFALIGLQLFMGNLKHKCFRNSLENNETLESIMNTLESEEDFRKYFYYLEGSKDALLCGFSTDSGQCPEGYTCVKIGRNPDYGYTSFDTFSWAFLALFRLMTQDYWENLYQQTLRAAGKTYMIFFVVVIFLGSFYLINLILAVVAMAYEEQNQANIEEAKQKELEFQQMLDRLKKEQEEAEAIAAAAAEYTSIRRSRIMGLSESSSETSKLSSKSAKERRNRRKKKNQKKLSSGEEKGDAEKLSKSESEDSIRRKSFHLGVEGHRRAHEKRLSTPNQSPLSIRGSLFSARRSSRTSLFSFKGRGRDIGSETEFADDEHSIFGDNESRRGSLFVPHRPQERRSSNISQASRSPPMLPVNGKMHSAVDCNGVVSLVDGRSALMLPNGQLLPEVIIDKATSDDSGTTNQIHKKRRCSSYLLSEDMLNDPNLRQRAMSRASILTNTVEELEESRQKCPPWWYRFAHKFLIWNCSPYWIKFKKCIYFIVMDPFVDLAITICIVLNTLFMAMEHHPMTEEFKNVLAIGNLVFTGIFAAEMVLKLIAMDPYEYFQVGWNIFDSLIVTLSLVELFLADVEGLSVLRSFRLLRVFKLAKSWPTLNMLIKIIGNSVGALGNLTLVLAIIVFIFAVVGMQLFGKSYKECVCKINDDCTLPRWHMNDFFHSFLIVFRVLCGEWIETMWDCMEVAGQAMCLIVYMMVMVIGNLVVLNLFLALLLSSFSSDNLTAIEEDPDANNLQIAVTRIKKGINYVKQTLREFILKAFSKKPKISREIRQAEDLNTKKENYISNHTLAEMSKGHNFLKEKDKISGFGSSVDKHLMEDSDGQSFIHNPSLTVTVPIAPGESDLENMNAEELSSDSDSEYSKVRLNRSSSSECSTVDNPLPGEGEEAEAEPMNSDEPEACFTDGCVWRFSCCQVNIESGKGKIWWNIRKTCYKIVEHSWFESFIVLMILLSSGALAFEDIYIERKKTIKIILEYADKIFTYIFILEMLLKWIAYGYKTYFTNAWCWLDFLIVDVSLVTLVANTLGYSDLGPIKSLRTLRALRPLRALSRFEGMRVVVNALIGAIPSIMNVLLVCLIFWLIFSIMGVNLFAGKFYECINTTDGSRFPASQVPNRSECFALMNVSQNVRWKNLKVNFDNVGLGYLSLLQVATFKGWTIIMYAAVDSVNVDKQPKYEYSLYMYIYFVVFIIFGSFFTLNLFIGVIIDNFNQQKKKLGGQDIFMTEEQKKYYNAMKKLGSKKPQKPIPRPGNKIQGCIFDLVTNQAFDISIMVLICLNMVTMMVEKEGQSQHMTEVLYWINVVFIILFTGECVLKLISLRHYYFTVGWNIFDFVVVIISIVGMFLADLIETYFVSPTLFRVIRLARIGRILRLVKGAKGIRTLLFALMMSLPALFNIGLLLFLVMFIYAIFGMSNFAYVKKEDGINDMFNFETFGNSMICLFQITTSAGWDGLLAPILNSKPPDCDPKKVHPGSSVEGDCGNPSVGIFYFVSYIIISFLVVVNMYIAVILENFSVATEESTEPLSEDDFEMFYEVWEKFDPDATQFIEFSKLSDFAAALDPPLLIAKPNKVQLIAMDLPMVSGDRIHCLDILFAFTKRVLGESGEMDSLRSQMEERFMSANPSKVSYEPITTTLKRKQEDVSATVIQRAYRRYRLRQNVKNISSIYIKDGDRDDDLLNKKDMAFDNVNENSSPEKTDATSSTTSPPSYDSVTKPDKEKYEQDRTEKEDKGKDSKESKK

For the experiment, the target named is human Nav1.7 (Homo sapiens (Human), UniProt Q15858). In words: FRET-based membrane potential assay, recombinant human sodium channel Nav1.7. It counts as cell-based. Particulars: HEK293 cells stably expressing recombinant human Nav1.7; depolarization with veratridine (EC80) + scorpion venom. The procedure:
FRET-Based Membrane Potential Assays.
Recombinant, Human Sodium Channel, Nav1.7.
Two days prior to the experiment, frozen HEK293 cells stably expressing recombinant human Nav1.7 were quickly thawed and plated at 25,000 cells/well in growth medium [DMEM (Invitrogen #11965) with 10% HI FBS (Invitrogen #10082), 2 mM glutamine, 100 units/mL penicillin, 0.1 mg/mL streptomycin (PSG, Sigma #G1146), and 500 μg/mL Geneticin (Invitrogen #10131)] in black-walled, clear-bottom 384-well poly-D-lysine-coated assay plates (Greiner Bio-One, Frickenhausen, Germany) and incubated in a humidified 5% CO2 incubator at 37° C. On the day of the assay, medium was removed by aspiration, and cells were washed with assay buffer [HBSS (Invitrogen, Carlsbad, Calif.) containing 20 mM HEPES (Invitrogen, Carlsbad, Calif.)]. After washing, 30 μL assay buffer containing the fluorescent voltage-sensor probe CC2-DMPE (Invitrogen, Carlsbad, Calif.) at 20 μM and 0.01% pluronic F-127 (Invitrogen, Carlsbad, Calif.) was added to the cells. Cells were incubated for 40 minutes at room temperature in the dark. Following the incubation, the cells were washed and 30 μL assay buffer containing 2.5 μM DiSBAC2(3) substrate (Invitrogen, Carlsbad, Calif.) and 0.5 mM VABSC-1 (Invitrogen, Carlsbad, Calif.) was added to the cells. The cells were incubated for 90 minutes at room temperature in the dark. Fluorescence readings were made using a FLIPR®^TETRA (Molecular Devices, Sunnyvale Calif.) equipped with voltage-sensor probe optics. At the start of each experiment the optimal (EC80) concentration of depolarizing agent (veratridine) was determined by testing a dilution curve of assay buffer containing veratridine (Sigma-Aldrich, St. Louis, Mo.) and 1 mg/mL scorpion venom (SVqq, from Leiurus quinquestriatus; Sigma-Aldrich, St. Louis, Mo.). […] Test compounds in the daughter plate were diluted to (˜3×) solutions in assay buffer immediately before assaying. Using the FLIPR®^TETRA, 20 μL of the (3×) compound solutions were first added to the cells, then 20 μL of depolarizing solution (3×EC80 veratridine+SVqq) were added 3 minutes later to activate the channel. Changes in fluorescence were measured at wavelengths of 440-480 nm and 565-625 nm over the course of the experimental run. Membrane depolarization was expressed as a ratio of the maximum F440-480 nm/F565-625 nm reading above average baseline F440-480 nm/F565-625 nm reading. IC50 values were calculated from curve fits of the ratio data using a four-parameter logistic Hill equation (Accelrys Assay Explorer 3.3 Client, Accelrys, San Diego, Calif.) with percent inhibition plotted against compound concentration.
Take `O=C1N(CC(=O)N2CCCC2CN2CCOCC2)CCN1c1cccc2c1cnn2-c1ccccc1F` (centres unmarked) [Example 71, 1-[1-(2-fluorophenyl)-1H-indazol-4-yl]-3-{2-[2-(morpholin-4-ylmethyl)pyrrolidin-1-yl]-2-oxoethyl}imidazolidin-2-one]: the IC50 (as a rule, the concentration that gives 50% inhibition) was 2340 nM.

In the case of `CN(CCN1CCOCC1)C(=O)CN1CCN(c2cccc3c2cnn3-c2ccccc2F)C1=O` [Example 72, 2-{3-[1-(2-fluorophenyl)-1H-indazol-4-yl]-2-oxoimidazolidin-1-yl}-N-methyl-N-[2-(morpholin-4-yl)ethyl]acetamide], the IC50 was found to be 1800 nM.

Take `CCOCCNC(=O)CN1CCN(c2cccc3c2cnn3-c2ccccc2F)C1=O` [Example 74, N-(2-ethoxyethyl)-2-{3-[1-(2-fluorophenyl)-1H-indazol-4-yl]-2-oxoimidazolidin-1-yl}acetamide]: the IC50 came to 7540 nM.

Turning to `CC(C)CCC(=O)N1CCN(c2cccc3c2cnn3-c2ccccc2F)C1=O` [Example 76, 1-[1-(2-fluorophenyl)-1H-indazol-4-yl]-3-(4-methylpentanoyl)imidazolidin-2-one], the IC50 came to 2290 nM.

As for `O=C1N(c2cccc3c2cnn3-c2ccccc2F)CCN1S(=O)(=O)C1CCCC1` [Example 77, 1-(cyclopentylsulfonyl)-3-[1-(2-fluorophenyl)-1H-indazol-4-yl]imidazolidin-2-one], the IC50 worked out at 2790 nM.

Consider `O=C1N(c2cccc3c2cnn3-c2ccccc2F)CCN1S(=O)(=O)C1CCCCC1` [Example 78, 1-(cyclohexylsulfonyl)-3-[1-(2-fluorophenyl)-1H-indazol-4-yl]imidazolidin-2-one], for which the IC50 was determined as 2940 nM.

On to `O=C1N(c2cccc3c2cnn3-c2ccccc2F)CCN1S(=O)(=O)c1cccs1` [Example 79, 1-[1-(2-fluorophenyl)-1H-indazol-4-yl]-3-(2-thienylsulfonyl)imidazolidin-2-one], for which the 50% inhibitory concentration (IC50) was 2270 nM.

As for `CC(C)CS(=O)(=O)N1CCN(c2cccc3c2cnn3-c2ccccc2F)C1=O` [Example 80, 1-[1-(2-fluorophenyl)-1H-indazol-4-yl]-3-(isobutylsulfonyl)imidazolidin-2-one], the IC50 turned out to be 2380 nM.

Regarding `CCCS(=O)(=O)N1CCN(c2cccc3c2cnn3-c2ccccc2F)C1=O` [Example 81, 1-[1-(2-fluorophenyl)-1H-indazol-4-yl]-3-(propylsulfonyl)imidazolidin-2-one], the IC50 was determined as 4080 nM.

As to `CC(C)S(=O)(=O)N1CCN(c2cccc3c2cnn3-c2ccccc2F)C1=O` [Example 82, 1-[1-(2-fluorophenyl)-1H-indazol-4-yl]-3-(isopropylsulfonyl)imidazolidin-2-one], the IC50 stood at 2460 nM.

With `CCS(=O)(=O)N1CCN(c2cccc3c2cnn3-c2ccccc2F)C1=O` [Example 83, 1-(ethylsulfonyl)-3-[1-(2-fluorophenyl)-1H-indazol-4-yl]imidazolidin-2-one], the 50% inhibitory concentration (IC50) was found to be 20000 nM.

For the molecule `CC(C)(O)[C@H]1CCN(C(=O)CN2CCN(c3cccc4c3cnn4-c3ccccc3F)C2=O)C1` [Example 85, 1-[1-(2-fluorophenyl)-1H-indazol-4-yl]-3-{2-[(3S)-3-(2-hydroxypropan-2-yl)pyrrolidin-1-yl]-2-oxoethyl}imidazolidin-2-one], the IC50 came to 12300 nM.

In the case of `O=C(CN1CCN(c2cccc3c2cnn3-c2ccccc2F)C1=O)N1CCC(F)(F)C1` [Example 86, 1-[2-(3,3-difluoropyrrolidin-1-yl)-2-oxoethyl]-3-[1-(2-fluorophenyl)-1H-indazol-4-yl]imidazolidin-2-one], the half-maximal inhibitory concentration (IC50) stood at 1960 nM.

Regarding `O=C1N(Cc2ccc(C(F)(F)F)cn2)CCN1c1cccc2c1cnn2-c1ccccc1F` [Example 89, 1-[1-(2-fluorophenyl)-1H-indazol-4-yl]-3-{[5-(trifluoromethyl)pyridin-2-yl]methyl}imidazolidin-2-one], the IC50 is 10600 nM.

As for `C[C@H]1CCN(C(=O)CN2CCN(c3cccc4c3cnn4-c3ccccc3F)C2=O)C1` [Example 90, 1-[1-(2-fluorophenyl)-1H-indazol-4-yl]-3-{2-[(3S)-3-methylpyrrolidin-1-yl]-2-oxoethyl}imidazolidin-2-one], the concentration for half-maximal inhibition (IC50) was found to be 1720 nM.

For `O=C(CN1CCN(c2cccc3c2cnn3-c2ccccc2F)C1=O)N1CC(F)(F)C1` [Example 91, 1-[2-(3,3-difluoroazetidin-1-yl)-2-oxoethyl]-3-[1-(2-fluorophenyl)-1H-indazol-4-yl]imidazolidin-2-one], the IC50 amounted to 1740 nM.

As for `CC(C)CNC(=O)CN1CCN(c2cccc3c2cnn3-c2ccccc2F)C1=O` [Example 92, 2-{3-[1-(2-fluorophenyl)-1H-indazol-4-yl]-2-oxoimidazolidin-1-yl}-N-isobutylacetamide], the IC50 is 1860 nM.

In the case of `O=C(CN1CCN(c2cccc3c2cnn3-c2ccccc2F)C1=O)N1CCC1` [Example 94, 1-[2-(azetidin-1-yl)-2-oxoethyl]-3-[1-(2-fluorophenyl)-1H-indazol-4-yl]imidazolidin-2-one], the IC50 was determined as 11900 nM.

In the case of `CC(C)NC(=O)CN1CCN(c2cccc3c2cnn3-c2ccccc2F)C1=O` [Example 95, 2-{3-[1-(2-fluorophenyl)-1H-indazol-4-yl]-2-oxoimidazolidin-1-yl}-N-isopropylacetamide], the IC50 was 2680 nM.

With `CC(C)OCC(=O)N1CCN(c2cccc3c2cnn3-c2ccccc2F)C1=O` [Example 96, 1-[1-(2-fluorophenyl)-1H-indazol-4-yl]-3-(isopropoxyacetyl)imidazolidin-2-one], the IC50 worked out at 1640 nM.

As for `O=C1N(Cc2cc(C(F)(F)F)ccn2)CCN1c1cccc2c1cnn2-c1ccccc1F` [Example 97, 1-[1-(2-fluorophenyl)-1H-indazol-4-yl]-3-{[4-(trifluoromethyl)pyridin-2-yl]methyl}imidazolidin-2-one], the IC50 turned out to be 2390 nM.

As for `CCOCC1(F)CCN(C(=O)CN2CCN(c3cccc4c3cnn4-c3ccccc3F)C2=O)C1` (centres unmarked) [Example 98, 1-{2-[3-(ethoxymethyl)-3-fluoropyrrolidin-1-yl]-2-oxoethyl}-3-[1-(2-fluorophenyl)-1H-indazol-4-yl]imidazolidin-2-one], the IC50 came out at 1440 nM.

In the case of `O=C(CN1CCN(c2cccc3c2cnn3-c2ccccc2F)C1=O)N1CCN2CCC[C@H]2C1` [Example 99, 1-[1-(2-fluorophenyl)-1H-indazol-4-yl]-3-{2-[(8aS)-hexahydropyrrolo[1,2-c]pyrazin-2(1H)-yl]-2-oxoethyl}imidazolidin-2-one], the IC50 worked out at 482 nM.

With `CC1COCC(C)N1C(=O)CN1CCN(c2cccc3c2cnn3-c2ccccc2F)C1=O` (centres unmarked) [Example 101, 1-[2-(3,5-dimethylmorpholin-4-yl)-2-oxoethyl]-3-[1-(2-fluorophenyl)-1H-indazol-4-yl]imidazolidin-2-one], the IC50 was found to be 3520 nM.

For the molecule `O=C(CN1CCN(c2cccc3c2cnn3-c2ccccc2F)C1=O)N1CCC2(C1)OCCO2` [Example 102, 1-[2-(1,4-dioxa-7-azaspiro[4.4]non-7-yl)-2-oxoethyl]-3-[1-(2-fluorophenyl)-1H-indazol-4-yl]imidazolidin-2-one], the IC50 stood at 3490 nM.

For the molecule `O=C1CN(C(=O)CN2CCN(c3cccc4c3cnn4-c3ccccc3F)C2=O)CC(=O)N1` [Example 103, 4-({3-[1-(2-fluorophenyl)-1H-indazol-4-yl]-2-oxoimidazolidin-1-yl}acetyl)piperazine-2,6-dione], the half-maximal inhibitory concentration (IC50) amounted to 3620 nM.

As to `CN1CC2CN(C(=O)CN3CCN(c4cccc5c4cnn5-c4ccccc4F)C3=O)CC2C1` (centres unmarked) [Example 104, 1-[1-(2-fluorophenyl)-1H-indazol-4-yl]-3-[2-(5-methylhexahydropyrrolo[3,4-c]pyrrol-2(1H)-yl)-2-oxoethyl]imidazolidin-2-one], the IC50 amounted to 6260 nM.

`O=C1N(CC(=O)N2CCOC3CCCCC32)CCN1c1cccc2c1cnn2-c1ccccc1F` (centres unmarked) [Example 105, 1-[1-(2-fluorophenyl)-1H-indazol-4-yl]-3-[2-(octahydro-4H-1,4-benzoxazin-4-yl)-2-oxoethyl]imidazolidin-2-one]: the half-inhibitory concentration (IC50) stood at 1330 nM.

As for `O=C(CN1CCN(c2cccc3c2cnn3-c2ccccc2F)C1=O)N1CC2CCCC2C1` (centres unmarked) [Example 106, 1-[1-(2-fluorophenyl)-1H-indazol-4-yl]-3-[2-(hexahydrocyclopenta[c]pyrrol-2(1H)-yl)-2-oxoethyl]imidazolidin-2-one], the IC50 was 635 nM.
